In series [1] the target is Human immunodeficiency virus type 1 reverse transcriptase (Human immunodeficiency virus 1, UniProt Q72547). Nature of the series: Inhibition of HIV1 reverse transcriptase.
Series [2] concerns Human immunodeficiency virus 1. Nature of the series: Antiviral activity against HIV1 3B in human MT4 cells by MTT assay.
Series [3] deals with Human immunodeficiency virus 1. Nature of the series: Antiviral activity against HIV1 RF in human CEM-SS cells by XTT assay. The conditions noted are these: for EC50: Human immunodeficiency virus 1, RF. It is filed as functional, organism-based.
In series [4] the test system is Human immunodeficiency virus 2. Nature of the series: Antiviral activity against HIV2 ROD in human MT4 cells by MTT assay.
Series [5] in a line: Cytotoxicity against human CEM-SS cells by MTT assay. It is filed as cell-based.
Series [6] in a line: Cytotoxicity against human MT4 cells by MTT assay. It is filed as cell-based.

The text below walks through data of ChEMBL document CHEMBL1148795 (J Med Chem, 2007).

SMILES strings stand for the structures. Calls of active or inactive are those of the source. The rule behind the calls is not given here.

With `COc1c(C)cc(/C(=C\CCCc2nnc(C)o2)c2cc(C)c3on(C)c(=O)c3c2)cc1C(=O)SC`, the IC50 in series [1] is more than 100 µM. The half-maximal effective concentration (EC50) in series [2] (Human immunodeficiency virus 1, 3B) worked out at 0.76 µM; in series [3], 0.97 µM. Moreover, in series [4], the outcome was inactive. In addition, the CC50 in series [5] amounted to 6 µM; in series [6], 9.9 µM.

`COC(=O)c1cc(C(=CCCc2nnn(C)n2)c2cc(C)c(OC)c(C(=O)SC)c2)cc(C)c1OC` registered a 50% inhibitory concentration (IC50) in series [1] of 95 µM. In addition, the result in series [2], in series [3] and in series [4] was inactive. Further, the CC50 in series [5] is 1.6 µM; in series [6], 1.4 µM.

In series [1], `COc1c(C)cc(/C(=C/CCc2nnc(C)o2)c2cc(C)c3onc(OC)c3c2)cc1C(=O)SC` registered an IC50 of 33 µM. The result in series [2], in series [3] and in series [4] was inactive. Besides, the values for the CC50 in series [5] and in series [6] were 1.2 µM and 1.6 µM, respectively.

In series [1], `COc1c(C)cc(/C(=C/CCc2nnc(C)o2)c2cc(C)c3on(C)c(=O)c3c2)cc1C(=O)SC` had an IC50 of more than 100 µM. The result in series [2], in series [3] and in series [4] was inactive. The values for the cytotoxic concentration (CC50) in series [5] and in series [6] were 17 µM and 37 µM, respectively.

Regarding `COc1c(C)cc(C(=CCCc2nnc(C)o2)c2cc(C)c(OC)c(C(=O)SC)c2)cc1C(=O)SC`, in series [1], the IC50 is more than 100 µM. Moreover, the outcome in series [2], in series [3] and in series [4] was inactive. Further, the cytotoxic concentration (CC50) in series [5] is 8.1 µM; in series [6], 5.9 µM.

In the case of `COc1c(C)cc(C(=CCCc2nnn(C)n2)c2cc(C)c(OC)c(C(=O)SC)c2)cc1C(=O)SC`, the midpoint of inhibition in series [1], the IC50, lay at 67 µM. In addition, the result in series [2] and in series [4] was inactive. Besides, the values for the 50% cytotoxic concentration (CC50) in series [5] and in series [6] were 33 µM and 7 µM, respectively.

`COc1c(C)cc(/C(=C/CCc2nnc(C)o2)c2cc(C)c3oc(=O)n(C)c3c2)cc1C(=O)SC` registered an IC50 in series [1] of 90 µM. Moreover, the outcome in series [2] and in series [3] was inactive. This compound also had a half-maximal effective concentration (EC50) in series [4] (Human immunodeficiency virus 2, ROD) of 5.9 µM. Also, the CC50 in series [5] amounted to 6.6 µM; in series [6], 14 µM.

For `COC(=O)CCC/C=C(\c1cc(C)c(OC)c(C(=O)OC)c1)c1cc(C)c2oc(=O)n(C)c2c1`, the result in series [4] was inactive.

`COc1c(C)cc(/C(=C/CCc2nnc(C)o2)c2ccc(C#N)cc2)cc1C(=O)SC` displayed a 50% inhibitory concentration (IC50) in series [1] of 48 µM. Further, the result in series [2], in series [3] and in series [4] was inactive. Moreover, the values for the CC50 in series [5] and in series [6] were 1.2 µM and 3.2 µM, respectively.

For `COc1c(C)cc(/C(=C/CCCc2nnc(C)o2)c2cc(C)c3oc(=O)n(C)c3c2)cc1C(=O)SC`, the IC50 in series [1] is 36 µM. Also, the result in series [2], in series [3] and in series [4] was inactive. The CC50 was 5.5 µM in series [5] and 7.7 µM in series [6].

Consider `COc1c(C)cc(/C(=C/CCCc2nnc(C)o2)c2cccc(C#N)c2)cc1C(=O)SC`, for which the IC50 in series [1] turned out to be 7.7 µM. Moreover, the result in series [2], in series [3] and in series [4] was inactive. Besides, the CC50 in series [5] is 7.2 µM; in series [6], 8.2 µM.

Turning to `O=C1Nc2ccc(Cl)cc2C(C#CC2CC2)(C(F)(F)F)O1` (single isomer, unassigned) [EFAVIRENZ], the outcome in series [4] was inactive. In series [6], this compound showed a CC50 of 6 µM.

Take `Cc1ccnc2c1NC(=O)c1cccnc1N2C1CC1` [NEVIRAPINE]: in series [3], the EC50 turned out to be 0.015 µM. Further, in series [4], the outcome was inactive. Moreover, in series [6], half-maximal cytotoxicity (CC50) was put at 15 µM.

In series [1], `COC(=O)CCC/C=C(\c1cc(C)c(OC)c(C(=O)OC)c1)c1cc(C)c2onc(OC)c2c1` gave an IC50 of 0.91 µM.
